Tested on: Fibroblast
Test: Incucyte cell viability with human fibroblast; note: filed as whole numbers so only -1 and 0 and 1 occur
Type: toxicity, cell-based
Conditions: 10 µM, compound concentration 10 uM
[1] = 6 h, replicate number 1, timepoint 6 hours
[2] = 12 h, replicate number 1, timepoint 12 hours
[3] = 18 h, replicate number 1, timepoint 18 hours
[4] = 24 h, replicate number 1, timepoint 24 hours
[5] = 0 h, replicate number 1, timepoint 0 hours
[6] = 6 h, replicate number 2, timepoint 6 hours
[7] = 12 h, replicate number 2, timepoint 12 hours
[8] = 0 h, replicate number 2, timepoint 0 hours
[9] = 24 h, replicate number 2, timepoint 24 hours
[10] = 18 h, replicate number 2, timepoint 18 hours

| SMILES | Growth Rate [1] | Growth Rate [2] | Growth Rate [3] | Growth Rate [4] | Growth Rate [5] | Growth Rate [6] | Growth Rate [7] | Growth Rate [8] | Growth Rate [9] | Growth Rate [10] |
| --- | --- | --- | --- | --- | --- | --- | --- | --- | --- | --- |
| Cn1cc(C2=C(c3cn(C4CCN(Cc5ccccn5)CC4)c4ccccc34)C(=O)NC2=O)c2ccccc21 [ENZASTAURIN] | 0 | 0 | 0 | 0 |  |  |  |  |  |  |
| O=C(NCCCC1CCCCC1)c1ccc(CNC(=O)c2cnn(-c3ccccc3)c2C(F)(F)F)cc1 [SR-321] | 1 | 1 | 1 | 1 | 1 | 0 | 0 |  |  |  |
| CC[C@H](C)C(=O)O[C@H]1C[C@@H](C)C=C2C=C[C@H](C)[C@H](CC[C@@H]3C[C@@H](O)CC(=O)O3)[C@H]21 [LOVASTATIN] | 1 | 1 | 1 | 1 | 0 |  |  |  |  |  |
| C[C@@]1(C(=O)Nc2ccc(F)nc2)CCCN1c1nc(Nc2cc(C3CC3)n[nH]2)c2cccn2n1 [BMS-754807] | 0 | 0 | 0 | 0 |  |  |  |  |  |  |
| C=CC(=O)Nc1ccc2ncnc(Nc3ccc(OCc4cccc(F)c4)c(Cl)c3)c2c1.Cc1ccc(S(=O)(=O)O)cc1 | 0 | 0 | 0 | 0 | 0 |  |  |  |  |  |
| CNc1nc(NCc2ccc(NS(C)(=O)=O)cc2Cl)cc(-c2ccccn2)n1 | 0 | 0 | 0 | 0 |  |  |  |  |  |  |
| Cn1cc(-c2[nH]c3cc(NC(=O)[C@H](N)C4CCCCC4)cc4c3c2C=NNC4=O)cn1 |  |  | 1 | 1 | 0 |  |  |  |  |  |
| CCOCCn1cc(C(=O)Nc2ccc(-n3nc(-c4cccnc4)cc3C(F)(F)F)cn2)ccc1=O [BI 1935] | 1 | 0 | 0 | 0 |  |  | 1 | 0 | 1 |  |
| CN(C)C(=O)N[C@H]1CC[C@H](CCN2CCN(c3cccc(Cl)c3Cl)CC2)CC1.Cl [CARIPRAZINE HYDROCHLORIDE] | 0 | 0 | 1 | 1 | 0 |  |  |  | 0 | 0 |
| Cc1nc(-c2ccc(-c3ccc(C(=O)N4CCc5cc6c(cc54)C4(CCN(C)CC4)CO6)cc3)c(C)c2)no1 [SB-224289] |  | 0 | 0 | 0 | 0 | 0 |  |  |  |  |
| Cc1nc(-c2cn3c(n2)-c2ccc(-c4cnn(C(C)(C)C(N)=O)c4)cc2OCC3)n(C(C)C)n1 [TASELISIB] | 0 | 0 | 0 | 0 | 0 |  |  | 1 |  |  |
| COc1cccc([C@@H](C)NCCCc2ccccc2Cl)c1.Cl [TECALCET HYDROCHLORIDE] |  | 1 | 1 | 1 | 0 | 0 | 0 |  | 0 | 0 |
| Cc1csc2c(N[C@@H](C)CN3CCN(S(=O)(=O)c4ccc(Cl)c(Cl)c4)CC3)ncnc12 |  | 1 | 0 | 0 | 0 | 0 | 0 |  |  |  |
| NC(=O)Nc1cc(-c2cccc(F)c2)sc1C(=O)N[C@H]1CCCNC1 [AZD-7762] | 1 | 0 | 0 | 0 |  |  |  | 0 |  | 1 |
| Cn1c(-c2csc(C3CCN(CC4=NC5N=CC=CC5N4)CC3)n2)nc2ccccc21 (stereo unspecified) [BAY-070] | 0 | 1 | 1 | 1 |  |  |  | 1 |  |  |
| COc1cc(-n2cnc3cc(-c4ccc(Cl)cc4)sc3c2=O)ccc1OCCN1CCCC1 | 0 | 0 | 0 | 0 |  |  |  |  |  |  |
| Nc1c(C(=O)NCc2ccc(C(=O)NCCCC3CCCCC3)cc2)cnn1-c1ccccc1 [SR-318] | 1 | 1 | 0 | 0 | 0 | 0 | 0 | 1 |  |  |
| Cc1[nH]c(/C=C2\C(=O)Nc3ccc(S(=O)(=O)N(C)c4cccc(Cl)c4)cc32)c(C)c1C(=O)N1CCN(C)CC1 |  |  | 1 | 1 | 0 |  |  |  |  |  |
| CN1CCN(CCOc2cc(OC3CCOCC3)c3c(Nc4c(Cl)ccc5c4OCO5)ncnc3c2)CC1 [SARACATINIB] |  |  | 1 | 1 | 0 |  |  |  |  |  |
| Cc1c(-c2ccc(O)cc2)n(Cc2ccc(OCCN3CCCCCC3)cc2)c2ccc(O)cc12 [BAZEDOXIFENE] | 0 | 0 | 0 | 0 | 0 |  |  |  |  |  |
| O=C(NCCN1CCOCC1)c1ccc2c(c1)C(=O)c1ccc(Nc3ccc(F)c(NC(=O)c4ccccc4)c3)cc1CC2 [FS-694] | 1 | 0 | 0 | 0 | 0 |  |  |  |  |  |
| CN1CCC[C@@H]1CCO[C@](C)(c1ccccc1)c1ccc(Cl)cc1.O=C(O)/C=C/C(=O)O [CLEMASTINE FUMARATE] | 1 | 0 | 0 | 0 | 0 | 0 |  |  |  |  |
| C=CC(=O)Nc1cc2c(Nc3ccc(F)c(Cl)c3)ncnc2cc1OCCCN1CCOCC1.Cl.Cl [CANERTINIB DIHYDROCHLORIDE] | 0 | 0 | 0 | 0 | 1 |  |  |  |  |  |

| SMILES | Growth Rate [1] | Growth Rate [2] | Growth Rate [3] | Growth Rate [4] | Growth Rate [5] | Growth Rate [6] | Growth Rate [7] | Growth Rate [8] | Growth Rate [9] | Growth Rate [10] |
| --- | --- | --- | --- | --- | --- | --- | --- | --- | --- | --- |
| COc1ccc(Oc2cc(NCCC(F)(F)F)c3ncc(-c4ccc(C(=O)NC5CC5)c(C)c4)n3n2)c(F)c1F [BAY-1217389] | 0 | 0 | 0 | 0 |  |  |  | 1 |  |  |
| COc1cc2nccc(Oc3ccc(NC(=O)Nc4cc(C)on4)c(Cl)c3)c2cc1OC.O | 0 | 0 | 0 | 0 | 0 | 1 |  |  |  |  |
| C[C@@H](NCCCc1cccc(C(F)(F)F)c1)c1cccc2ccccc12.Cl [CINACALCET HYDROCHLORIDE] | 0 | 0 | 0 | 0 | 1 |  |  |  |  |  |
| CC(C)C(=O)Nc1n[nH]c2cc(-c3cccc(NS(=O)(=O)C4CC4)c3)ccc12 | 0 | 0 | 0 | 0 | 1 |  |  |  |  |  |
| Cc1sc2c(c1C)C(c1ccc(Cl)cc1)=N[C@@H](CC(=O)OC(C)(C)C)c1nnc(C)n1-2 | 0 | 0 | 0 | 0 |  | 1 |  | 0 |  |  |
| Cc1nc(Nc2n[nH]c3c2CN(C(=O)N[C@H](CN(C)C)c2ccccc2)C3(C)C)c2sccc2n1 [PF-03758309] | 0 | 0 | 0 | 0 |  |  |  | 0 |  |  |
| COc1ncc(-c2ccc3nccc(-c4ccnnc4)c3c2)cc1NS(=O)(=O)c1ccc(F)cc1F [OMIPALISIB] | 0 | 0 | 0 | 0 |  |  |  | 0 |  |  |
| CC(C)(O)CNc1ncc(-c2ccnc(Nc3ccnc(Cl)c3)n2)c(CC2CC2)n1 | 0 | 0 | 0 | 0 |  | 1 |  | 1 |  |  |
| O=C1NCN(c2ccccc2)C12CCN(CCCOc1ccc(F)cc1)CC2 [SPIRAMIDE] | 0 | 0 | 0 | 0 | 1 |  |  |  |  |  |
| Cc1cc(C)cc(-c2cnc3cc(Cl)c(-c4cccc(O)c4)cc3c2OCCCN)c1 | 0 | 0 | 0 | 0 | 0 |  |  |  |  |  |
| c1cn2cc(-c3ccc4cn[nH]c4c3)nc(Nc3ccc(N4CCOCC4)cc3)c2n1 [ENTOSPLETINIB] | 0 | 0 | 0 | 0 |  |  |  | 0 |  |  |
| CN1C(=O)c2sccc2N(C)c2nc(Nc3ccc(S(N)(=O)=O)cc3)ncc21 | 1 | 0 | 0 | 0 | 0 | 0 | 1 |  | 1 |  |
| C=CC(=O)Nc1cccc(C(=O)Nc2ccc(Nc3cc(-c4[nH]c(SC)nc4C)ccn3)cc2)c1 |  | 0 | 1 | 1 | 0 | 1 | 1 |  |  |  |
| CC(C)NCC(O)COc1ccc(CCOCC2CC2)cc1.Cl (stereo unspecified) [BETAXOLOL HYDROCHLORIDE] | 0 | 0 | 0 | 0 | 0 |  |  |  |  |  |
| CN1CCN(c2ccc(OC(F)(F)F)c(Nc3ncc4c(n3)-c3c(c(C(N)=O)nn3CCO)CC4)c2)CC1 [ONVANSERTIB] | 0 | 0 | 0 | 0 |  |  |  |  |  |  |
| CN(C)CC#Cc1ccc(OCCCc2sc(N3CCc4cccc(C(=O)Nc5nc6ccccc6s5)c4C3)nc2C(=O)O)c(F)c1 [A-1155463] | 0 | 0 | 0 | 0 | 0 |  |  |  |  |  |
| CCN(CC)CCCCNc1ncc2cc(-c3cc(OC)cc(OC)c3)c(NC(=O)NC(C)(C)C)nc2n1 [PD-173074] | 1 | 0 | 0 | 0 | 1 |  |  | 0 |  |  |
| CNCc1ccccc1-c1csc([C@H](C)Nc2nc(C)nc3cc(OC)c(OC)cc23)c1 [BAY-294] | 0 | 0 | 0 | 0 |  |  |  |  |  |  |
| CN(C)C(=O)/C(C#N)=C/c1ccc(-c2nc3cnc4[nH]ccc4c3n2C2CCCCC2)o1 | 1 | 0 | 0 | 0 |  |  |  | 0 |  | 1 |
| OC1(c2ccc(Cl)cc2)CCN(Cc2c[nH]c3ccccc23)CC1 | 0 | 0 | 0 | 0 | 0 |  |  |  |  |  |
| CN1CCCC(n2nc(Cc3ccc(Cl)cc3)c3ccccc3c2=O)CC1.Cl (stereo unspecified) [AZELASTINE HYDROCHLORIDE] |  | 1 | 1 | 0 | 0 | 0 | 0 |  |  | 0 |
| Cl.N#Cc1ccc2[nH]cc(CCCCN3CCN(c4ccc5oc(C(N)=O)cc5c4)CC3)c2c1 [VILAZODONE HYDROCHLORIDE] |  | 1 | 0 | 0 | 0 | 0 | 0 |  |  |  |

Source: ChEMBL document CHEMBL4689842, “EUbOPEN Chemogenomics Library wave 1” (2021)
